Test results published in patent US7112422B2, “Fluorometric assay for detecting nucleic acid cleavage” (Georgetown University, priority 1994, dated 2006).
{FITC} = fluorescein isothiocyanate through the Aminolink 2 six-carbon amine linker

How the values were obtained:
[1] = target: T1, BamHI restriction endonuclease (Bacillus amyloliquefaciens, UniProt P23940); test: BamHI cleavage of FITC-labeled DNA substrate, native 20% PAGE with densitometry; type: biochemical, Bacillus amyloliquefaciens H; conditions: 10 units BamHI in 100 μl, 37° C.
T1 construct: purchased New England Biolab
T1 sequence (P23940 whole entry): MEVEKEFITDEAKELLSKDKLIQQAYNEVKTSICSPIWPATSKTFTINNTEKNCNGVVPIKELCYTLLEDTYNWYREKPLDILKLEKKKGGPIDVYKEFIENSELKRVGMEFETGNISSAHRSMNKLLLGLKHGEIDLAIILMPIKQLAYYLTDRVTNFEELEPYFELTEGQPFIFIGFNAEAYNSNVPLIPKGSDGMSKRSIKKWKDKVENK
Procedure: (§1) Cleavage reactions were also examined as a function of substrate concentration with a fixed concentration of BamHI (10 units in 100 μl total reaction volume). The reactions were initiated by the addition of BamHI and stopped by the addition of 25 mM EDTA 11 minutes after the enzyme was added. The reaction mixtures were subjected to native 20% polyacrylamide gel analysis. Since the DNA substrate was labeled with FITC, a photograph of the gel was taken under ultraviolet illumination (using a Kodak green filter) without staining the gel with ethidium bromide. Therefore, only the fluorescent-labeled DNA fragments were visualized, resulting in two DNA bands: a substrate band and a product band (5′-FITC-NH-CCCCG). A direct comparison was made between the data obtained from the fluorometric assay and the photographic data obtained from gel electrophoretic analysis. The kinetics of BamHI cleavage reactions as a function of DNA substrate concentration measured by fluorometric analysis are illustrated in FIG. 7A. […] Similarly, the reaction at 0.36 μM substrate reached near completion as shown by both the fluorescence (curve B, FIG. 7A) and the gel data (lane B, FIG. 7B). Higher DNA substrate concentrations, 0.72 μM (curve C, FIG. 7A) and 1.08 μM (curve D, FIG. 7A), yielded incomplete cleavage reactions (observed by changes in fluorescence intensity). […] It appears that the initial velocity of curve D is also slower than that of curve C. […] As expected, the PAGE data (FIG. 7B) show higher product formation in lane C compared to that of lane D.
The fractions of uncleaved and cleaved DNA were calculated from the fluorescence data utilizing equation 1 (see Methods). Fractions of uncleaved and cleaved DNA were also estimated from a photograph taken from the polyacrylamide gel. Utilizing a Hewlett Packard ScanJet IIp and the densitometry program Scan Analysis 68000 (BioSoft), the peaks obtained from each of the bands (substrate and products) were integrated and ratioed to obtain the relative amount of cleavage.

[2] = target: T1, BamHI restriction endonuclease; test: BamHI cleavage of FITC-labeled DNA substrate, continuous fluorometric (dequenching) assay; type: biochemical, Bacillus amyloliquefaciens H; conditions: 10 units BamHI in 100 μl, 37° C.
Procedure: Spectroscopic Measurements: Absorbance and absorption spectra were measured with a Hewlett-Packard 8450A diode array spectrophotometer. Using the extinction coefficient of fluorescein (E-78,000) at 492 nm, the concentration and total moles of fluorescein were calculated (Chen and Scott, supra). The amount of fluorescein conjugated to the oligonucleotide was estimated by subtracting the moles of fluorescein multiplied by the extinction coefficient of FITC at 260 nm, 23,000 M^−1 cm^−1, from the total absorbance at 260 nm. The remaining AU260 should be proportional to the DNA content. Steady-state fluorescence spectra and intensity were recorded with an SLM 8000 spectrophotofluorometer with 10-mm Glan-Thompson polarizers. Fluorescence emission measurements were performed under “magic angle” emission conditions (Spencer and Weber, J. Chem. Phys. 52:1654–1663 (1970)). A cuvette with a 3-mm excitation path length was used for all experiments. The absorbance of all fluorescence samples was less than 0.1 at the wavelength of excitation to avoid inner-filter effects. The temperatures of the samples were regulated with a Neslab Instruments, Inc., T.E.Q. temperature controller and a PBC4 bath cooler.
The extent of cleavage by BamHI was calculated from the fluorescence data utilizing the following equation:
[formula] where [DNA]c is the concentration of cleaved DNA, Ft is the fluorescence intensity at time, t, F∞is the fluorescence intensity at the plateau, F0 is the initial fluorescence intensity, and [DNA]i is the initial concentration of DNA. Results and Discussion
as §1
The fractions of uncleaved and cleaved DNA were calculated from the fluorescence data utilizing equation 1 (see Methods). Fractions of uncleaved and cleaved DNA were also estimated from a photograph taken from the polyacrylamide gel. […]

HIV-IN = target: T2, HIV-IN (Human immunodeficiency virus type 1 group M subtype B, UniProt P12497); test: HIV-IN cleavage of fluorogenic substrate monitored by FRET; type: biochemical
T2 construct: The wild-type HIV-integrase protein was obtained from Dr. Robert Craigie; made in house; host or cells: Escherichia coli
Procedure: FIGS. 10A and 10B: FIG. 10A is a graph depicting steady-state emission spectra of a fluorogenic substrate in the presence and absence of HIV-IN. Curve A depicts the emission spectrum of 4 pmol of fluorogenic substrate in 400 μl reaction buffer containing 25 mM HEPES, pH 7.5, 50 mM NaCl, 2 mM DTT, and 5% glycerol at 37° C. Curve B depicts the emission spectrum of the same substrate digested with 40 pmol HIV-IN for 1 hour. Curve C depicts the difference emission spectrum of curve B and curve A. Emission spectra were recorded with an excitation wavelength at 460 nm.
FIGS. 11A, 11B, and 11C: FIG. 11A is a graph depicting the kinetics of an HIV-IN cleavage reaction of a fluorogenic substrate monitored by FRET. The DNA cleavage reaction was initiated by the addition of HIV-IN to a preincubated reaction mixture containing 4 pmol of substrate. The conditions for the reactions are the same as in FIG. 10. Changes in fluorescence intensity were monitored with excitation and emission wavelengths of 460 and 510 nm, respectively. Mn^2+ quenched the fluorescence intensity of the substrate in the absence of the enzyme; thus, the kinetic data presented in this figure were intensity normalized according to the intensity ratio of the substrate in the presence of Mg^2+ and in the presence of Mn^2+. FIG. 11B depicts the kinetics of an HIV-IN cleavage reaction of a fluorogenic substrate monitored by denaturing polyacrylamide gel electrophoresis (PAGE). The time course of a ^32P-5′-labeled fluorescent substrate was determined by radiographic assays. […] Reaction mixtures were analyzed by denaturing gel electrophoresis. Results were quantitated by utilizing a Hewlet-Packard ScanJet IIp and the densitometry program Scan Analysis 68020 (BioSoft). […]
Spectroscopic Measurements: Absorbance and absorption spectra were measured with a Hewlett-Packard 8450A diode array spectrophotometer. Steady-state fluorescence spectra and intensity were recorded with an SLM 8000 spectrophotofluorometer with 10-mm Glan-Thompson polarizers. […]

[3] = Curve A, [DNA] 0.21 μM, stopped after 11 minutes
[4] = Curve B, [DNA] 0.36 μM, stopped after 11 minutes
[5] = Curve C, [DNA] 0.72 μM, stopped after 11 minutes
[6] = Curve D, [DNA] 1.08 μM, stopped after 11 minutes
[7] = Curve E, [DNA] 0.18 μM, in the presence of 25 mM EDTA

Molecule | % Cleavage PAGE [1, 3] [%] | % Cleavage PAGE [1, 4] [%] | % Cleavage PAGE [1, 5] [%] | % Cleavage PAGE [1, 6] [%] | % Cleavage PAGE [1, 7] [%] | % Cleavage Fluorescence Assay [2, 3] [%] | % Cleavage Fluorescence Assay [2, 4] [%] | % Cleavage Fluorescence Assay [2, 5] [%] | % Cleavage Fluorescence Assay [2, 6] [%] | % Cleavage Fluorescence Assay [2, 7] [%] | estimated efficiency of the cleavage reaction by HIV-IN (HIV-IN; 4 pmol substrate, 40 pmol HIV-IN, 1 hour, 37° C., in the presence of Mg2+, relative to DNase I digestion) [%] | changes in donor fluorescence with Mg2+ relative to Mn2+ (HIV-IN; 7.5 mM Mg2+ vs 7.5 mM Mn2+, end of a 60 minute reaction, intensity normalized) | cleavage of substrate by integrase (increase in fluorescence intensity) (HIV-IN; in the presence of 20 mM EDTA, 37° C.)
5′-FITC-NH-CCCCGGATCCACCC-3′ (SEQ ID NO:1) annealed to 3′-GGGGCCTAGGTGGG-5′ (SEQ ID NO:2) (antisense GGGTGGATCCGGGG; sense: DNA, 5' {FITC}, backbone and methylation of C not given here; antisense: DNA, backbone and methylation of C not given here; further chemistry not fully specified) [FITC-labeled DNA Substrates, 14-mer FITC-labeled oligonucleotide with the BamHI restriction site, annealed to its unlabeled complementary strand] | 100 | 92.3 | 60.6 | 30.1 | 0 | 100 | 91.9 | 59.5 | 32.2 | 0 | – | – | –
F-D1/T1: 5′-TGAGTACCCGTGTGGAAAATCTCTAGCAGGGNCTATGGCGTCCCCTCTG (SEQ ID NO:3); E-D2: 3′-… (SEQ ID NO:4) (nucleic acid, FITC and EITC labels, chemistry not fully specified, FITC-labeled 49-mer hybrid strand of HIV-1 U5 end annealed to EITC-labeled partial complementary strand) sense: TGAGTACCCGTGTGGAAAATCTCTAGCAGGGNCTATGGCGTCCCCTCTG antisense: NACTGCTAGAGATTTTCCACACGGGTACTCA | – | – | – | – | – | – | – | – | – | – | 35 | approximately 3 times | not cleaved
